Entries after “also recorded” stand apart in the source; their conditions may differ. Structures can show the parent of a compound that is named as a salt.
Columns and labels:
[1] = tested on: rats; experiment: Interaction with apomorphine in rats; format: in vivo, rat; details: i.p.
Method: CRL 41 153 is administered to groups of 6 rats 0.5 hour before the subcutaneous injection of 0.5 mg/kg of apomorphine.

[2] = tested on: mice; experiment: Interaction with barbital; format: in vivo, mouse; details: i.p., barbital 220 mg/kg
Method: Half an hour after the administration of CRL 41 153, groups of 10 mice receive an intraperitoneal injection of barbital (220 mg/kg).

[3] = tested on: mice; experiment: Behavioral despair; format: in vivo, mouse; details: forcibly immersed mice, i.p.
Excerpt: Half an hour after they have received CRL 41 153, groups of 6 mice are placed in a beaker filled with water to a height of 6 cm. The total period of immobility between the 2nd and 6th minutes following immersion is noted.

[4] = tested on: CNS; experiment: Neuropsychopharmacological profile as a whole; format: in vivo, mice and rats
Method: (§1) In the neuropsychopharmacological study which follows, a solution of CRL 41 153 in distilled water (pH 1.5) was administered intraperitoneally in a volume of 20 ml/kg to male mice and 5 ml/kg to male rats.

[5] = tested on: mice; experiment: Motility reduced by habituation to the enclosure; format: in vivo, mouse; details: i.p.
Method: After they have stayed In the actimeters for 18 hours, (he mice (6 per dose, 12 control animals) receive CRL 41 153. They are immediately returned to their respective enclosures and, half an hour later, their motility is recorded for 30 minutes.

[6] = tested on: mice; experiment: Interaction with oxotremorine; format: in vivo, mouse; details: i.p.
Method: CRL 41 153 is administered to groups of 6 mice 0.5 hour before the intraperitoneal injection of 0.5 mg/kg of oxotremorine.

[7] = tested on: rats; experiment: Interaction with amphetamine; format: in vivo, rat; details: i.p.
Method: Amphetamine (2 mg/kg) is injected intraperitoneally into groups of 6 rats 30 minutes after the administration of CRL 41 153. […] 4 mg/kg and 16 mg/kg, CRL 41 153 potentiates the intensity and duration of the stereotypies induced by amphetamine.

[8] = pH of solutions in distilled water; format: physicochemical
Method: The neuropsychopharmacological study was undertaken according to the procedures described above for CRL 41 153, CRL 41 213 being adminstered intraperitoneally, in solution in distilled water, in a volume of 20 ml/kg to male mice and a volume of 5 ml/kg to male rats, and the pH of the injected solution varying with the concentration of CRL 41 213 according to the data given in Table II below.

[9] = tested on: mice; experiment: Interaction with apomorphine in mice; format: in vivo, mouse; details: i.p.
Method: Groups of 6 mice receive CRL 41 153 0.5 hour before the subcutaneous injection of 1 or 16 mg/kg of apomorphine.

[10] = tested on: immunity; experiment: Immunological study (overall); details: in vivo; dihydrochloride
[11] = tested on: mice; experiment: Spontaneous motility; format: in vivo, mouse; details: i.p.
Method: 0.5 hour after they have received CRL 41 153, the mice (6 per dose, 12 control animals) are placed in an actimeter, where their motility is recorded for 30 minutes.

[12] = tested on: man; experiment: Clinical study: treatment of depressions; format: in vivo, human
[13] = tested on: mice; experiment: Overall behavior and reactivities in mice; format: in vivo, mouse; details: dose not stated
Method: as §1
(§2) Groups of three animals are observed before and then 0.25 hour, 0.50 hour, 1 hour, 2 hours, 3 hours and 24 hours after the administration of CRL 41 153.

[14] = tested on: dogs; experiment: Cardiovascular study in anesthetized dogs; format: in vivo, dog
Outline: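 Nembutal-anaesthetized dogs (~14 kg) given CRL 41 194 (n=2) or CRL 41 221 (n=4) intraduodenally at successive 0.1, 0.5, 1, 2.5, 5 and 10 mg/kg doses. Blood pressure, heart rate, femoral and vertebral flow, rectal temperature measured; skin colour observed, plus bile colour (CRL 41 194).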

[15] = tested on: cellular and humoral immunity; experiment: Delayed hypersensitivity to the red blood corpuscles of sheep; format: in vivo
[16] = tested on: cellular and humoral immunity; experiment: Test for cells forming lysis areas; details: in vivo
[17] = tested on: mice; experiment: Motility reduced by hypoxic aggression; format: in vivo, mouse; details: i.p.
Method: Half an hour after they have received CRL 41 153, the mice (10 per dose, 20 control animals) are subjected to acute hypobaric anoxia [pressure reduction of 600 mm Hg (i.e. about 8×10^4 Pa) in 90 seconds; release of vacuum in 45 seconds] and are then placed in an actimeter, where their motility is recorded for 10 minutes.

[18] = tested on: rats; experiment: Overall behavior and reactivities in rats; format: in vivo, rat; details: dose not stated
Method: as §1, §2

[19] = tested on: mice; experiment: Interaction with reserpine; format: in vivo, mouse; details: i.p.
Method: Four hours after the intraperitoneal injection of 2.5 mg/kg of reserpine, groups of 6 mice receive CRL 41 153.

[20] = tested on: gravid White New Zealand female rabbits; experiment: Teratogenicity in gravid White New Zealand rabbits; format: in vivo, rabbit; details: day 5 to day 18 of gestation; for Affected foetuses, %: normal limit 1.5%
Outline: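 Fetuses harvested by cesarean on gestation day 29 were scored for number and for any malformation (limb blockade, anury, tail or skull defects, exencephaly).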

[21] = anesthetized dogs, intraduodenal

In the case of `CC(C(=O)c1ccc(N)cc1)N1CCOCC1` (stereo not shown) [CRL 41 237, 1-(4-aminophenyl)-2-morpholinopropanone dihydrochloride], the “Effect on stereotypies induced by apomorphine” value [1] is reported as “potentiation of the stereotypies”, the “Duration of the sleep induced by barbital” value [2] is reported as “a reduction in the duration of the sleep induced by barbital” and the “Period of immobility due to despair” value [3] is reported as “a reduction in the period of immobility”. The “Stimulant effects (overall)” value ([4]; conclusion of the tests) was “stimulant effects”, the “α-adrenergic stimulant effects (overall)” value ([4]; conclusion of the tests) was “effects showing peripheral α-adrenergic stimulation” and the “Antidepressant effects (overall)” value ([4]; conclusion of the tests, dihydrochloride) was “good antidepressant; also recorded: antidepressant effects”. The “Peripheral α-adrenergic signs (mydriasis, salivation, lacrimation, exophthalmos)” value ([4]; species and dose not stated, dihydrochloride) was “mydriasis”, the “Motor activity of mice accustomed to their enclosure” value [5] was “resumption in the motor activity of mice accustomed to their enclosure” and the “Effect on hypothermic action of oxotremorine” value [6] was “antagonism of the hypothermia”. For the same compound, the “Effect on trembling induced by oxotremorine” value [6] was “antagonism of the trembling induced by oxotremorine”, the “Effect on stereotypies induced by amphetamine” value [7] was “potentiation of the stereotypies” and the pH ([8]; 0.1 g/liter in distilled water) was 5.0. For the same compound, the pH ([8]; 0.2 g/liter in distilled water) was 4.5, the pH ([8]; 0.4 g/liter in distilled water) was 4.0 and the pH ([8]; 0.8 g/liter in distilled water) was 3.5. For the same compound, the pH ([8]; 1.6 g/liter in distilled water) was 3.0, the pH ([8]; 3.2 g/liter in distilled water) was 2.5 and the pH ([8]; 6.4 g/liter in distilled water) was 2.0. The pH ([8]; 25 g/liter in distilled water) was 1.5, the pH ([8]; 50 g/liter in distilled water) was 1.0 and the pH ([8]; ≤0.05 g/liter in distilled water) was 5.5. The “Effect on hypothermia induced by apomorphine” value [9] was “antagonism of the hypothermia”, the “Immunological effect (overall)” value [10] was “immunostimulant or immunomodulating effects; also recorded: immunostimulant effects” and the Spontaneous motor activity [11] was “an increase in the spontaneous motor activity of mice”. The “Result in the treatment of depressions” value [12] was “good results were obtained by oral administration in the treatment of depressions at a daily dose of -0 mg”, the “Overall behavior: observed effects (summary)” value [13] was “excitation with hyperreactivity in mice and rats” and the “Stereotype movements (summary)” value [13] was “the presence of stereotype movements in mice and rats”. For the same compound, the Femoral flow ([14]; anesthetized dog, intravenous, additional 10 mg/kg) was “caused an increase in the femoral flow”, the “Effect on hypertension induced by norepinephrine” value ([14]; anesthetized dogs) was “distinctly increases the hypertension induced by norepinephrine” and the “Effects of isoprenaline (not further specified)” value ([14]; anesthetized dogs) was “does not modify the effects of isoprenaline”. The Rectal temperature ([14]; anesthetized dogs) was “The rectal temperature rises gradually”, the Skin temperature ([14]; anesthetized dogs) was “a large increase in the skin temperature” and the Blood pressure [14, 21] was “No action was observed on the blood pressure”. The Femoral flow [14, 21] was “No action was observed on the blood pressure, the femoral flow and the vertebral flow”, the Heart rate [14, 21] was “slight tachycardiac effect at 20 mg/kg” and the Vertebral flow [14, 21] was “No action was observed on the blood pressure, the femoral flow and the vertebral flow”. The “Activity on the delayed hypersensitivity reaction” value [15] was “weaker activity on the abovementioned delayed hypersensitivity reaction to red blood corpuscles of sheep, at doses of 0.1 mg/kg to 10 mg/kg, administered orally”, the “Activity in the test for cells forming lysis areas” value [16] was “strong activity according to the abovementioned test for cells forming lysis areas, at a dose of 100 mg/kg, administered orally” and the “Motor recovery of mice after hypobaric hypoxia” value [17] was “improvement in the motor recovery”. For the same compound, the “Overall behavior: observed effects (summary)” value [18] was “excitation with hyperreactivity in mice and rats”, the “Stereotype movements (summary)” value [18] was “the presence of stereotype movements in mice and rats” and the “Effect on hypothermia induced by reserpine” value [19] was “antagonism of the hypothermia”. The “Effect on ptosis induced by reserpine” value [19] was “antagonism of the ptosis induced by reserpine”, the “Affected foetuses, number” value ([20]; 5 mg/kg daily) was 0 and the “Total foetuses (live)” value ([20]; 5 mg/kg daily) was 91. For the same compound, the “Affected foetuses, %” value ([20]; 5 mg/kg daily) was 0%, the “Affected foetuses, number” value ([20]; 10 mg/kg daily) was 1 and the “Total foetuses (live)” value ([20]; 10 mg/kg daily) was 96. The “Affected foetuses, %” value ([20]; 10 mg/kg daily) was 1.04%, the “Affected foetuses, number” value ([20]; 50 mg/kg daily) was 1 and the “Total foetuses (live)” value ([20]; 50 mg/kg daily) was 88. The “Affected foetuses, %” value ([20]; 50 mg/kg daily) was 1.13%.
